Paper PMC6383986, “Fragment-Based Covalent Ligand Screening Enables Rapid Discovery of Inhibitors for the RBR E3 Ubiquitin Ligase HOIP” (Journal of the American Chemical Society, 2019)

Assays:
[1] = biological target: T1, 3 × FLAG-tagged HOIP RBR in HEK293T cells (Homo sapiens, UniProt Q96EP0); test: ABPP in-gel fluorescence, competition with TCO probe (15); format: cell-based; conditions: 30 μM 7 h pretreatment, then 3 μM (15) 2 h; vs (11i), (17), DMSO
T1 construct: expressed in transfected cells; host or cells: HEK293T, transient, modified pcDNA3.1(+)
Description: PCR purification kit QIAquick Qiagen 28104
Maxiprep Kit Endofree plasmid Maxi Kit Qiagen 12362
E coli Competent DH5α New England C2987H
E coli Competent BL21 GOLD(DE3) Agilent 230132
LDS loading buffer NuPAGE 4× LDS loading buffer Invitrogen NP0008
Trypsin Cell Culture TE Trypsin Gibco R-001-100
Trypsin Sequencing Grade Modified Trypsin Promega V511A
Chymotrypsin Sequencing Grade Chymotrypsin Promega V106A
Cy5-Tetrazine Fluorescent probe for IEDDA click chemistry DC Biosciences CCR-1189-1 Tz-PEG4-Biotin Tetrazine linked biotin Jena Bioscience CLK-027-25
NeutrAvidin beads High capacity NeutrAvidin agarose resin Thermo 29204 […]
5.1 Activity-based protein profiling – In-gel fluorescence […]
HEK293T cells were cultured and transfected with 3×FLAG-tagged HOIP RBR wild type or C885A mutant, or mock as described in section 4.8 above. […] The cells were harvested and lysed (50 mM Tris-HCl, pH 7.5, 1.5 mM MgCl2, 150 mM NaCl, 5% glycerol, 0.8% v/v IGEPAL-CA630, 25 mM NaF, 1 mM Na3VO4, complete protease inhibitor), and the protein concentration was determined by the BCA assay as described in section […]
50 µL. The lysates were incubated at 23 °C, 600 rpm (Eppendorph Thermomixer) for 1 h, then analyzed by SDS PAGE (section 4.5) and in-gel fluorescence (LI-COR) at 700 nm, and by Western Blot as described in section 4.6 (Figure 6E and Supplementary Figures S15, S16). […]

[2] = biological target: T2, IRAK4 (Homo sapiens, UniProt Q9NWZ3); test: IMAP-FP IRAK4 substrate phosphorylation assay; format: biochemical
T2 construct: recombinant full length IRAK4-FLAG; His6 (with the rest of the FlagHisAvi vector tag) (C, cleaved yes); made in house; host or cells: Sf9 insect cells (baculovirus)

[3] = biological target: T3, full-length recombinant IRAK4-FLAG (Homo sapiens, UniProt Q9NWZ3); test: LCMS labelling of recombinant IRAK4; format: binding; conditions: 300 μM compound, 1.5 μM IRAK4, 1 h
T3 construct: recombinant full length IRAK4-FLAG; His6 (with the rest of the FlagHisAvi vector tag) (C, cleaved yes); made in house; host or cells: Sf9 insect cells (baculovirus)
Experimental: filter BODIPY FP S-pol 595). The percentage activity was plotted against different compound concentrations and fitted using the IC50 – 4 parameter logistic using GraFit7 Software (Supplementary Figure S17). Percentage activity was calculated by dividing each value by values for no inhibition, then multiplying it by 100. Background correction was carried out by subtracting […]
Two independent experiments were carried out in duplicate.
IRAK4 (1.5 µM) was incubated with compound (11a) (300 µM) in water at ambient temperature for 1 h (final volume 20 µL), and analyzed by LCMS. […]
kinase activity. A) Serial dilutions of compound (11a) (200 µM final top concentration) and IRAK4 […]
concentration) for 1 h before adding 5TAMRA-[…]-NH2 (100 nM final […]
concentration) and ATP (50 μM final concentration). […]
independent experiments, each performed in duplicate.
B) IRAK4 (1.5 µM) was incubated with compound (11a) (300 µM) for 1 h and analyzed by LCMS. The DMSO control was incubated for 5 h. For reference GT-hIRAK4-FLAG (tetraphosphorylated; MW = 53003 Da), compound (11a) (MW = 290 Da).
(1 picture or pasted object on this page, not shown here)

T2 sequence (Q9NWZ3 whole entry): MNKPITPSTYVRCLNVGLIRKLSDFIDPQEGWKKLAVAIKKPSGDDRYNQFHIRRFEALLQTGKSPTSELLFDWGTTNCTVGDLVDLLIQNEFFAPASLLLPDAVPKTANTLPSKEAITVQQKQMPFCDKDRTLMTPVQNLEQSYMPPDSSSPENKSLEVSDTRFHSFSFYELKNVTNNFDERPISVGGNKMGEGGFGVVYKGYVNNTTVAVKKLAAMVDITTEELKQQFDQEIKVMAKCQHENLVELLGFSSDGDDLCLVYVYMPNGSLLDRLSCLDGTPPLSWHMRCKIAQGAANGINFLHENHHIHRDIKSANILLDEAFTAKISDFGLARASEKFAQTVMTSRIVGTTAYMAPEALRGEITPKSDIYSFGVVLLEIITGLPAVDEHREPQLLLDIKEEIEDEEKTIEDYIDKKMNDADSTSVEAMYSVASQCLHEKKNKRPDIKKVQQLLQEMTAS
T3 sequence (Q9NWZ3 whole entry): as above
T1 sequence (Q96EP0 697-1072): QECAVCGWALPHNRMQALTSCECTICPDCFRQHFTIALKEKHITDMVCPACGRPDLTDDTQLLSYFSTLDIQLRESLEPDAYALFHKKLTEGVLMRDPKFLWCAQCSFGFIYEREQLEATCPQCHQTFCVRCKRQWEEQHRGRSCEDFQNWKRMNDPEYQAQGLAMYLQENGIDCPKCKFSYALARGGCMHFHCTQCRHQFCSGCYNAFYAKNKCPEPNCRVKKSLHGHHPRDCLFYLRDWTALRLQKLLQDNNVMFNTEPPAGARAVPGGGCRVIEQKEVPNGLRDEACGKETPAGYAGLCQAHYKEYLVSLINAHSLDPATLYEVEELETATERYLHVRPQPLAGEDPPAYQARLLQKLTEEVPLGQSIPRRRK

IC50 ([2]; 1 h preincubation, 6 nM IRAK4, 50 μM ATP): > 200 µM | inhibition of IRAK4 substrate phosphorylation ([2]; concentrations up to 200 μM): no inhibition | labelling of IRAK4-FLAG [3]: confirmed by LCMS
Compound: COC(=O)/C=C/CNC(=O)c1cc2c([nH]c1=O)CCCC2 [Compound 11a]
in-gel fluorescence of HOIP RBR labeled by probe (15) [1]: significant reduction of the in-gel fluorescence of HOIP RBR
